Test results: patent US8410140B2, “Anesthetic methods and compositions” (The Regents of the University of Michigan, priority 2009, dated 2013)

Assays:
[1] = test system: sciatic nerve block in rat; assay: Paw withdrawal latency (PWL) to a heat stimulus after perineural sciatic nerve block, dexmedetomidine dose response (Example 2); format: in vivo; conditions: operative paw, ropivacaine 0.5%, heat cut-off 15 seconds, n = 10
Protocol: Commercially available 0.75% ropivacaine solution was mixed with preservative free normal saline or dexmedetomidine to make final solutions. The control group received 0.5% ropivacaine alone. In the experimental groups, ropivacaine was mixed with dexmedetomidine to make solutions based on the individual rat's weight 24 hours prior to experimental testing. […] The pH of ropivacaine (5.69±0.05) was used as the standard to which all solutions were maintained.
Fifty male Sprague Dawley rats (caesarean-derived Sprague-Dawley) weighing 250-350 g were purchased from Charles River Laboratories (Wilmington, Mass.). Rats without any signs of neurobehavioral impairment were maintained for one week in 12:12 light-dark cycles with lights on from 6 a.m. to 6 p.m. For the three days prior to surgery and neurobehavioral monitoring, rats were conditioned to the paw withdrawal chambers for one hour per day. Each rat was placed in the same position of the six-chamber container during the conditioning and neurobehavioral testing. On each of the three days prior to testing, both paws of the rat were exposed to the heat stimulus as a portion of the conditioning process. The day before surgery and testing, five PWL baseline measurements were obtained on both the operative and control paws. The mean value of the five measures was recorded as the rat's baseline value.
The IITC Life Sciences Inc. Plantar Analgesia Meter (Series 8 Model 336T, IITC Life Science Inc., Woodland Hills, Calif.) was used to test paw withdrawal latency (PWL) (Hargreaves et al. (1988) Pain 32:77-88; herein incorporated by reference in its entirety). The analgesia meter used a test unit containing a heat source that radiated a light beam. An angled mirror on the test unit was used to locate the correct target on the paw. The meter was set with an active intensity of 40%, an idle intensity of 10%, and a cut-off time for the heat source of 15 seconds. The time to paw withdrawal from the heat stimulus comprised the PWL measure (reaction time was measured to 0.01 s). An acrylic six-chamber container was used to separate the rats that were placed on the glass (Model 400) heated base. In order to decrease the level of variance in PWL measurements, the temperature of the base was set to 30 degrees Celsius five minutes prior to and throughout each round of PWL testing (Ding et al. (1997) Neurosci. Methods 76:183-191; herein incorporated by reference in its entirety).
An investigator blinded to the drug condition carried out the sciatic nerve injections. Each rat was randomly assigned to one of the five drug conditions. The laboratory assistants responsible for drug preparation were blinded to the surgery, neurobehavioral monitoring, and PWL measures. Rats were anesthetized and maintained with 2.5% isoflurane. […] Following the dissection, the sciatic nerve was clearly identified at a point proximal its bifurcation. All rats received unilateral injections of 0.2 ml of drug into the perineural space below the clear fascia covering the nerve and proximal to the bifurcation of the sciatic nerve. Injections were made using a tuberculin syringe and a 30-gauge needle. The time of the injection was recorded and deemed the zero time point. A non-absorbable muscle fascia suture was placed at the midpoint of the injection site as a marker for subsequent nerve removal.

[2] = test system: sciatic nerve block in rat; assay: PWL and inter-paw differential (IPD), perineural versus subcutaneous dexmedetomidine in sciatic nerve block (Example 3); format: in vivo
Protocol: The relative systemic versus peripheral perineural effects of dexmedetomidine were determined by observing the PWL for the blocked and unblocked (control) paw. The effect of sensory analgesia (as measured by the PWL) to the operative paw compared with the control paw was calculated and is reported as the inter-paw differential (IPD=100*[Operative PWL−Control PWL]/Control PWL).
Data are presented as mean±SEM.

[3] = test system: sciatic nerve block in rat; conditions: high-dose dexmedetomidine alone or combined with approved concentrations of bupivacaine; cited from earlier work
[4] = drug(s) injected perineurally, saline subcutaneously, ropivacaine 0.5%, DEX 20.0 μg/kg, p<0.05

CCCN1CCCC[C@H]1C(=O)Nc1c(C)cccc1C [Ropivacaine, ropivacaine]
Mean PWL values, 90 min ([1]; 90 min after 0.2 ml perineural sciatic injection): 13.25 s
Mean PWL values, 120 min ([1]; 120 min after 0.2 ml perineural sciatic injection): 6.13 s
Mean PWL values, 150 min ([1]; 150 min after 0.2 ml perineural sciatic injection): 4.74 s
Mean PWL values, 180 min ([1]; 180 min after 0.2 ml perineural sciatic injection): 5.35 s
Mean PWL values, 210 min ([1]; 210 min after 0.2 ml perineural sciatic injection): 5.05 s
PWL scores of the operative paws, 30-90 min time points ([2]; dense blockade, cutoff threshold 15 s, ropivacaine 0.5%, DEX 20.0 μg/kg): ~15 s
time points with significant differences between the operative and control paws (PWL) [2, 4]: 30 to 90 min

Cc1cccc([C@H](C)c2cnc[nH]2)c1C [dexmedetomidine, Dexmedetomidine]
sensory blockade of the operative paw ([2]; DEX 20.0 μg/kg alone, perineural): brief, partial sensory blockade
inter-paw differential (IPD), relative effect ([2]; DEX 20.0 μg/kg alone, perineural, significantly different at 30 and 60 minutes (p=0.006 and 0.002)): greater than subcutaneous dexmedetomidine alone
time points with significant differences between the operative and control paws (PWL) ([2]; DEX 20.0 μg/kg injected subcutaneously, perineural 0.5% ropivacaine or saline): affected both paws equally
time points with significant differences between the operative and control paws (PWL) [2, 4]: 60 min
neurotoxicity [3]: no neurotoxicity
